# Assay results taken from patent US20060263355A1, “Treatment of bone disorders” (priority 2005, published 2006).
# Key:
# [1] = Bone remodeling in animals (Example 2); conditions: rats, subcutaneously once per day for 35 days
# [2] = tested on: TRAP-positive osteoclasts; test: TRAP assay, osteoclasts formed in vitro (Example 4)
# Method: TRAP refers to tartrate-resistant acid phosphatase that identifies osteoclast-like cells.
# In this test, naphthol AS-MX phosphate 5 mg (Sigma, St. Louis, Mo.) is resolved in 0.5 ml of N,N-dimethylformamide (Wako). Thirty milligrams of fast red violet LB salt (Sigma) and 50 ml of 0.1 M sodium acetate buffer (pH 5.0) containing 50 mM sodium tartrate are added to the mixture (the TRAP-staining solution). Cells are fixed with 3.7% (v/v) formaldehyde in Ca^2− and Mg^2+-free phosphate-buffered saline for 10 min, fixed again with ethanol-acetone (50:50, v:v) for 1 min, and incubated with the TRAP-staining solution for 10 min. at room temperature. TRAP-positive osteoclasts appear as red cells. The incubation period should not exceed 10 min. since cells other than osteoclasts become weakly positive with time. After staining, cells are washed with distilled water, and TRAP-positive multinucleated cells having three or more nuclei are counted as osteoclasts under a microscope (Nicholson et al., J. Clin. Invest. 78: 355 (1986)).
# [3] = Periodontal disease model (Example 5); format: in vivo; conditions: applied to the periodontal pocket
# Method: Rituximab may be used to regenerate bone and ligament lost to periodontal disease. In this model teeth showing 20% to 80% reduction of surrounding jaw bone are scaled, then a full-thickness gingival flap is made by an incision to expose the jaw bone and tooth root. The root is planed to remove bacterial plaque and calculus. Rituximab is applied to the periodontal pocket in a 2.5% HPMC gel at a dose of […] per tooth, or alternatively a solution of rituximab in 100 mM sodium acetate buffer, pH 6.0 is added to powdered bone to provide a dosage of […] rituximab per tooth. The material is thoroughly mixed and applied to the exposed periodontal pocket. In both cases, the gingival flap is then closed and held in place by suturing.
# [4] = cited from earlier work; for effect in rat adjuvant / experimental arthritis: in vivo
# [5] = tested on: serological markers of inflammation and bone turnover; test: Serum biochemical markers in RA patients, Phase IIa study of rituximab; format: in vivo, human; conditions: week 24 vs baseline, n = 40
# Method: Serum samples were analyzed from RA+ patients who received either methotrexate (MTX) alone or MTX in combination with a single course of rituximab as part of a Phase IIa study of rituximab in RA to be reported elsewhere. The following markers were measured at baseline and Week 24: anti-CCP, CRP, S100, SAA, PINP and Osteocalcin (OC).
# Biomarker data were analyzed using a non-parametric approach by comparing the percentage changes at 24-weeks from baseline in MTX group with the RTX+MTX group. The median percent change from baseline was plotted using the following formula: Pcfb1(marker)=((slope—lr*study time at last visit)/intercept—lr)*100
# where slope_lr=slope of linear regression for each patient • intercept_lr=intercept of linear regression for each patient.
# [6] = ACR50 clinical response in RA, Phase IIa study of rituximab; format: in vivo, human; conditions: two infusions of rituximab two weeks apart with ongoing MTX, versus MTX alone
# [7] = pH 5; cited from earlier work
# [8] = in vivo; cited from earlier work
# [9] = tested on: serological markers of inflammation and bone turnover; test: Serum biochemical markers in RA patients, Phase IIa study of rituximab; format: in vivo, human; conditions: RA patients treated with rituximab
# B cells = conditions: cynomolgus monkey; cited from earlier work
# [10] = in vivo; cited from earlier work; remark: listed apart in the source
# lymphoid B-cell lines = conditions: cited from earlier work
compound,measurement,setting,value
"humanized 2H7: humanized CD20 antibody, or antigen-binding fragment, comprising at least CDR H3 of SEQ ID NO:12 and human VHIII framework",bone remodeling versus controls,[1],effective in enhancing bone remodeling over the controls
same,performance as positive control in TRAP assay,[2],effective as a positive control
same,regeneration of surrounding jaw bone versus placebo,[3],at least partially regenerated
CC(O)(P(=O)(O)O)P(=O)(O)O [etridronate],effect in rat adjuvant / experimental arthritis,[4],"decrease weight loss, pedal inflammation, and bone resorption"
Rituximab + MTX: MTX in combination with a single course of rituximab,"Anti-CCP (anti-citrullinated peptide antibody), median % change from baseline at 24 weeks",[5],−45.78%
same,"CRP (C-reactive protein), median % change from baseline at 24 weeks",[5],−59.07%
same,"OC (osteocalcin), median % change from baseline at 24 weeks",[5],28.76%
same,"P-1NP (procollagen type 1 N-terminal propeptide), median % change from baseline at 24 weeks",[5],13.64%
same,"S100 (S100 A8/9), median % change from baseline at 24 weeks",[5],−52.73%
same,"SAA (serum amyloid A), median % change from baseline at 24 weeks",[5],−77.02%
same,ACR50 response at 24 weeks,[6],significantly higher clinical responses
O=P(O)(O)C(O)(Cc1cccnc1)P(=O)(O)O [NE58095],effect in rat adjuvant / experimental arthritis,[4],prevents bone erosion and preserves joint architecture
"CN(Cc1cnc2nc(N)nc(N)c2n1)c1ccc(C(=O)N[C@@H](CCC(=O)O)C(=O)O)cc1 [MTX, methotrexate]","Anti-CCP (anti-citrullinated peptide antibody), median % change from baseline at 24 weeks",[5],−21.03%
same,"CRP (C-reactive protein), median % change from baseline at 24 weeks",[5],−22.21%
same,"OC (osteocalcin), median % change from baseline at 24 weeks",[5],1.94%
same,"P-1NP (procollagen type 1 N-terminal propeptide), median % change from baseline at 24 weeks",[5],−11.78%
same,"S100 (S100 A8/9), median % change from baseline at 24 weeks",[5],−14.31%
same,"SAA (serum amyloid A), median % change from baseline at 24 weeks",[5],−10.55%
rituximab,minimum shelf life,[7],two
same,patients experiencing at least one adverse event during their first infusion,[8],36%
same,Total immunoglobulin levels,[9],not affected significantly
same,B-cell depletion in vivo,B cells,"depletes B cells from the peripheral blood, lymph nodes, and bone marrow"
same,bone remodeling versus controls,[1],effective in enhancing bone remodeling over the controls
same,patients admitted to the hospital for overnight observation after moderate fever and rigors following the first infusion,[10],1 of 10
same,performance as positive control in TRAP assay,[2],effective as a positive control
same,complement-dependent cytotoxicity (CDC),lymphoid B-cell lines,lyses lymphoid B-cell lines
same,regeneration of surrounding jaw bone versus placebo,[3],at least partially regenerated
O=P(O)(O)C(O)(Cn1ccnc1)P(=O)(O)O [Zoledronate],effect in rat adjuvant / experimental arthritis,[4],protects against meta hyseal intracortical defets
O=P(O)(O)C(Cl)(Cl)P(=O)(O)O [clodronate],effect in arthritis study at 20 mg/kg/day iv infusion,[4]; 20 mg/kg/day iv infusion,"decreases pedal inflammation and bone resorption, but also inhibits bone formation"
same,effect in rat adjuvant / experimental arthritis,[4],"decrease weight loss, pedal inflammation, and bone resorption"
